From ChEMBL document CHEMBL1201862, “PubChem BioAssay data set” (2004)
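Interpolation was linear, between the two tested concentrations surrounding the appropriate level; five concentrations were tested over 48 hours in 96-well plates. Here, GI50 denotes the concentration required for 50% inhibition of growth.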 Calls of active or inactive are those of the source. Rule as the data show it: active = GI50 up to about 1.1 µM and inactive = higher.

Experiments:
Assay in all cases: NCI-60 cell line screen, 48 h
[1] = system: SR
[2] = system: NCI-H23
[3] = system: DMS-273
[4] = system: NCI-H522
[5] = system: RPMI-8226
[6] = system: CCRF-CEM
[7] = system: TK-10
[8] = system: XF498
[9] = system: COLO 205
[10] = system: SF-268
[11] = system: OVCAR-8
[12] = system: SK-MEL-5
[13] = system: SW-620
[14] = system: SF-295
[15] = system: K562
[16] = system: A549
[17] = system: HOP-62
[18] = system: A498
[19] = system: OVCAR-4
[20] = system: UACC-62
[21] = system: LOX IMVI
[22] = system: IGROV-1
[23] = system: HCT-116
[24] = system: HL-60
[25] = system: EKVX
[26] = system: RXF 393
[27] = system: OVCAR-3
[28] = system: KM12
[29] = system: CAKI-1
[30] = system: SF-539
[31] = system: DMS-114
[32] = system: HCC 2998
[33] = system: SNB-75
[34] = system: M19-MEL
[35] = system: SN12C
[36] = system: HOP-18
[37] = system: SK-OV-3
[38] = system: UO-31
[39] = system: KM-20L2
[40] = system: DLD-1
[41] = system: UACC-257
[42] = system: HOP-92
[43] = system: OVCAR-5
[44] = system: SK-MEL-2
[45] = system: LXFL 529
[46] = system: NCI-H226
[47] = system: Malme-3M
[48] = system: NCI-H460
[49] = system: ACHN
[50] = system: HT-29
[51] = system: SNB-19
[52] = system: 786-0
[53] = system: M14
[54] = system: MOLT-4
[55] = system: U-251
[56] = system: HCT-15
[57] = system: SNB-78

Measured: GI50

FC(F)(F)c1nc(-c2ccccc2)oc1Sc1oc(-c2ccccc2)nc1C(F)(F)F
> 100 µM: [56]
inactive: [1] 46.6 µM | [2] > 100 µM | [3] 66.7 µM | [4] 45.8 µM | [5] 93.3 µM | [6] > 100 µM | [7] > 100 µM | [8] 34.8 µM | [9] > 100 µM | [10] 52.5 µM | [11] 36.7 µM | [12] > 100 µM | [13] > 100 µM | [14] 34.4 µM | [15] > 100 µM | [16] > 100 µM | [17] 58.7 µM | [18] > 100 µM | [19] 19.7 µM | [20] > 100 µM | [21] > 100 µM | [22] > 100 µM | [23] > 100 µM | [24] > 100 µM | [25] > 100 µM | [26] 24.7 µM | [27] > 100 µM | [28] > 100 µM | [29] 26.8 µM | [30] 55.6 µM | [31] 40.3 µM | [32] > 100 µM | [33] 29.7 µM | [34] > 100 µM | [35] > 100 µM | [36] 73.6 µM | [37] 65.3 µM | [38] > 100 µM | [39] > 100 µM | [40] > 100 µM | [41] > 100 µM | [42] 39.1 µM | [43] > 100 µM | [44] > 100 µM | [45] > 100 µM | [46] 45.2 µM | [47] > 100 µM | [48] 99.1 µM | [49] 28.8 µM | [50] > 100 µM | [51] 87.3 µM | [52] > 100 µM | [53] 56.9 µM | [54] > 100 µM | [55] 54.6 µM | [57] > 100 µM
